Measurements taken from publication PMC11784013, “Potassium molybdate blocks APN-dependent coronavirus entry by degrading receptor via PIK3C3-mediated autophagy” (Journal of Virology, 2024).

Legend:
[1] = tested on: PIK3C3; assay: PIK3C3 expression in ST cells (western blot); format: cell-based, porcine; settings: PM 10 mM, 16 h; for PIK3C3 level, western blot, relative to WT without PM (=1): PRCV 0.1 MOI
Description: (§1) Fig 7 PM degrades APN expression via activating PIK3C3-mediated autophagy. (A) Graphical representation for autophagy and the targets of different autophagy inhibitors. (B) ST cells were treated with PM (10 mM) in the presence and absence of 3-MA (20 mM), SBI0206965 (20 µM), and 3BDO (30 µM) for 16 h, and the APN expression was detected by western blot. (C) ST cells were treated with PM (10 mM) in the presence and absence of 3-MA (20 mM) for 16 h, and the APN, PIK3C3, ATG14, BECN1, P62, and LC3 were measured by western blot. (D) ST cells were transfected with PIK3C3 siRNA-1, PIK3C3 siRNA-2, PIK3C3 siRNA-3, PIK3C3 siRNA-4, and NC siRNA for 24 h, the PIK3C3 expression was detected by western blot. (E) ST cells were transfected with PIK3C3 siRNA-4 or NC siRNA for 24 h and then treated with PM (10 mM) for 16 h. The APN, PIK3C3, ATG14, BECN1, P62, and LC3 were detected by western blot. (F) Sequencing diagram for WT ST cells and PIK3C3 KO ST cells. (G) PIK3C3 was detected by western blot in WT ST cells and PIK3C3 KO ST cells. (H) WT ST cells and PIK3C3 KO ST cells were treated with PM (10 mM) for 16 h and then the APN, PIK3C3, ATG14, BECN1, P62, and LC3 were detected by western blot. (I) WT ST cells and PIK3C3 KO ST cells were transfected with pCMV-Myc and pCMV-Myc-PIK3C3, respectively, for 24 h and treated with PM (10 mM) for 16 h. The APN, PIK3C3, P62, and LC3 were detected by western blot. All western blot results were calculated by Image J. All experiments were performed in triplicate.
Fig. S8. PM inhibits PRCV infection by degrading APN via PIK3C3-mediated autophagy. (A-C) WT ST cells and PIK3C3 KO ST cells were treated with PM (10 mM) and infected with PRCV (0.1 MOI) for 16 h. Then the APN, PIK3C3, ATG14, BECN1, P62, PRCV N and LC3 were detected by western blot (A), and viral titers and PRCV N mRNA level were determined by TCID50 (B) and RT-qPCR (C) . […] The APN, PIK3C3, P62, PRCV N and LC3 were determined by western blot (D). […]

[2] = tested on: BECN1; assay: BECN1 expression in ST cells (western blot); format: cell-based, porcine; settings: Fig. S8A, PM 10 mM, PRCV 0.1 MOI, 16 h
Description: as §1, with “(E) ST cells were transfected with PIK3C3 siRNA-4 or NC siRNA for 24 h and then treated with PM (10 mM) for 16 h.” left out, “(F) Sequencing diagram for WT ST cells and PIK3C3 KO ST cells.” left out, “(I) WT ST cells and PIK3C3 KO ST cells were transfected with pCMV-Myc and pCMV-Myc-PIK3C3, respectively, for 24 h and treated with PM (10 mM) for 16 h.” left out
Fig. S8. […] Then the APN, PIK3C3, ATG14, BECN1, P62, PRCV N and LC3 were detected by western blot (A), and viral titers and PRCV N mRNA level were determined by TCID50 (B) and RT-qPCR (C) . […]

SMILES: [K+].[K+].[O]=[Mo](=[O])([O-])[O-] [PM, potassium molybdate]
- PIK3C3 level, western blot, relative to WT without PM (=1) ([1]; Fig. S8A, WT ST cells): 2.83
- PIK3C3 level, western blot, relative to WT without PM (=1) ([1]; Fig. S8D, WT ST cells with pCMV-Myc): 1.73
- PIK3C3 expression ([1]; ST cells, western blot): activated PIK3C3 expression
- BECN1 level, western blot, relative to WT without PM (=1) ([2]; PIK3C3 KO ST cells): 0.95
- BECN1 level, western blot, relative to WT without PM (=1) ([2]; WT ST cells): 1.01
